Experimental findings from patent US10322108B2, “N-benzoate group substituted benzopyrroline-2-one derivative and use thereof” (BEIJING HANMI PHARMACEUTICAL CO., LTD., priority 2015, dated 2019) are described below.

Molecules are shown by their SMILES.

The target in one test is RORγ-LBD (Homo sapiens (Human), UniProt P51449). Nature of the test: LanthaScreen TR-FRET screening of RORγ-LBD / co-activator (Fluorescein-D22) interaction.
Sequence of RORγ-LBD (P51449 269-508): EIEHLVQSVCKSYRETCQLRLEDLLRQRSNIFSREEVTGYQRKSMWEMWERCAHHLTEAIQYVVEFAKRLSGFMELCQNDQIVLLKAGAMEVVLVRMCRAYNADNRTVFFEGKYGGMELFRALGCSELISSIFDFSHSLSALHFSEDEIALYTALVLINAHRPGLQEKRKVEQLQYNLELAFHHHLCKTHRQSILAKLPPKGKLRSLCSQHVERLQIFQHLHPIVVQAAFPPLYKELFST
Conditions: not given
On the technique in general: Time-resolved FRET reads energy transfer from a long-lived donor to a nearby acceptor.
What is called IC50 is the concentration that gives 50% inhibition. In the case of `Cc1cccc2c1/C(=C\c1c(Cl)cccc1C1CC1)C(=O)N2c1ccc(C(=O)O)cc1` [Example 2B, (trans)-4-(3-(2-chloro-6-cyclopropyl-benzylidene)-4-methylindolin-2-on-1-yl)-benzoic acid], the IC50 was in the range of 100 to 1000 nM.

In the case of `COc1cccc2c1/C(=C/c1c(Cl)cccc1Cl)C(=O)N2c1ccc(C(=O)O)c(O)c1` [Example 11, (trans)-4-(3-(2,6-dichloro-benzylidene)-4-methoxyindolin-2-on-1-yl)-2-hydroxybenzolic acid], the IC50 was in the range of 100 to 1000 nM.

In the case of `O=C(O)c1ccc(N2C(=O)/C(=C\c3c(Cl)cccc3C3CC3)c3c(-c4ccccc4)cccc32)cc1` [Example 13], the IC50 fell in the range of 100 to 1000 nM.

In the case of `O=C(O)c1ccc(N2C(=O)/C(=C\c3c(Cl)cccc3C3CC3)c3c(Cl)cccc32)cc1O` [Example 14, 4-(3-(2-chloro-6-cyclopropyl-benzylidene)-4-chloro-indolin-2-on-1-yl)-2-hydroxybenzolic acid], the IC50 was 100 to 1000 nM.

`O=C(O)c1ccc(N2C(=O)/C(=C\c3c(F)cccc3Cl)c3c(F)cccc32)cc1` [Example 17A, (trans)-4-(3-(2-chloro-6-fluoro-benzylidene)-4-fluoro-indolin-2-on-1-yl)-benzoic acid] gave an IC50 of 100 to 1000 nM.

Compound `O=C(O)c1ccc(N2C(=O)/C(=C/c3c(F)cccc3Cl)c3c(F)cccc32)cc1` [Example 17B, (cis)-4-(3-(2-chloro-6-fluoro-benzylidene)-4-fluoro-indolin-2-on-1-yl)-benzoic acid] displayed an IC50 of 100 to 1000 nM.

`O=C(O)c1ccc(N2C(=O)/C(=C\c3c(F)cccc3F)c3c(F)cccc32)cc1` [Example 18A, (trans)-4-(3-(2,6-difluoro-benzylidene)-4-fluoro-indolin-2-on-1-yl)-benzoic acid] had an IC50 of 1000 to 10000 nM.

`O=C(O)c1ccc(N2C(=O)/C(=C/c3c(F)cccc3F)c3c(F)cccc32)cc1` [Example 18B, (cis)-4-(3-(2,6-difluoro-benzylidene)-4-fluoro-indolin-2-on-1-yl)-benzoic acid] returned an IC50 of 1000 to 10000 nM.

The compound `CCCc1cccc(Cl)c1/C=C1\C(=O)N(c2ccc(C(=O)O)cc2)c2cccc(F)c21` [Example 20A, (trans)-4-(3-(2-chloro-6-n-propyl-benzylidene)-4-fluoro-indolin-2-on-1-yl)-benzoic acid] displayed an IC50 of 100 to 1000 nM.

`CCCc1cccc(Cl)c1/C=C1/C(=O)N(c2ccc(C(=O)O)cc2)c2cccc(F)c21` [Example 20B, (cis)-4-(3-(2-chloro-6-n-propyl-benzylidene)-4-fluoro-indolin-2-on-1-yl)-benzoic acid] had an IC50 of 100 to 1000 nM.

Regarding `O=C(O)c1ccc(N2C(=O)/C(=C/c3c(Cl)cccc3C3CC3)c3c(F)cccc32)cc1O` [Example 21B, (cis)-4-(3-(2-chloro-6-cyclopropyl-benzylidene)-4-fluoro-indolin-2-on-1-yl)-2-hydroxy-benzoic acid], the IC50 lay in the range of 100 to 1000 nM.

Take `Cc1cccc2c1/C(=C/c1c(Cl)cccc1C1CC1)C(=O)N2c1ccc(C(=O)O)c(Cl)c1` [Example 24, (trans)-4-(3-(2-chloro-6-cyclopropyl-benzylidene)-4-methylindolin-2-on-1-yl)-2-chloro-benzoic acid]: the IC50 lay within 100 to 1000 nM.

Take `Cc1cccc2c1/C(=C/c1c(Cl)cccc1C1CC1)C(=O)N2c1ccc(C(=O)O)c(F)c1` [Example 25, (trans)-4-(3-(2-chloro-6-cyclopropyl-benzylidene)-4-methylindolin-2-on-1-yl)-2-fluoro-benzoic acid]: the IC50 lay within 100 to 1000 nM.

In the case of `Cc1cccc(Cl)c1/C=C1\C(=O)N(c2ccc(C(=O)O)cc2)c2cccc(C)c21` [Example 29, (trans)-4-(3-(2-chloro-6-methyl-benzylidene)-4-methylindolin-2-on-1-yl)-benzoic acid], the IC50 is 100 to 1000 nM.

As to `COc1cccc2c1/C(=C/c1c(Cl)cccc1Cl)C(=O)N2c1ccc(C(=O)O)cc1` [Example 31, (trans)-4-(3-(2,6-dichloro-benzylidene)-4-methoxyindolin-2-on-1-yl)-benzoic acid], the IC50 lay within 1000 to 10000 nM.

`COc1cccc(Cl)c1/C=C1\C(=O)N(c2ccc(C(=O)O)cc2)c2cccc(C)c21` [Example 32, (trans)-4-(3-(2-chloro-6-methoxy-benzylidene)-4-methylindolin-2-on-1-yl)-benzoic acid] displayed an IC50 of 1000 to 10000 nM.

`Cc1cccc2c1/C(=C/c1c(Cl)cccc1C1CC1)C(=O)N2c1ccc(C(=O)O)c(N)c1` [Example 33]: the IC50 fell in the range of 1000 to 10000 nM.

Regarding `Cc1cccc2c1/C(=C/c1c(Cl)cccc1C1CCC1)C(=O)N2c1ccc(C(=O)O)c(O)c1` [Example 35], the IC50 was in the range of 100 to 1000 nM.

The same test, now with this note: read-out: IC50 Values; TR-FRET, 2 nM RORγ-LBD, 150 nM Fluorescein-D22 co-activator.
For the compound `Cc1cccc2c1/C(=C/c1c(Cl)cccc1Cl)C(=O)N2c1ccc(C(=O)O)cc1` [Example 5, (trans)-4-(3-(2,6-dichlorobenzylidene)-4-methylindolin-2-on-1-yl)-benzoic acid], the IC50 was below 100 nM.

Regarding `Cc1cccc2c1/C(=C/c1c(Cl)cccc1C(F)(F)F)C(=O)N2c1ccc(C(=O)O)c(O)c1` [Example 6, (trans)-4-(3-(2-chloro-6-(trifluoromethyl)-benzylidene)-4-methylindolin-2-on-1-yl)-2-hydroxybenzoic acid], the IC50 was below 100 nM.

For the compound `Cc1cccc2c1/C(=C/c1c(Cl)cccc1Br)C(=O)N2c1ccc(C(=O)O)c(O)c1` [Example 7, (trans)-4-(3-(2-chloro-6-bromo-benzylidene)-4-methylindolin-2-on-1-yl)-2-hydroxybenzolic acid], the IC50 was below 100 nM.

With `COc1cccc2c1/C(=C/c1c(Cl)cccc1C1CC1)C(=O)N2c1ccc(C(=O)O)c(O)c1` [Example 8], the IC50 was below 100 nM.

As to `Cc1cccc2c1/C(=C/c1c(F)cccc1Cl)C(=O)N2c1ccc(C(=O)O)c(O)c1` [Example 9], the IC50 was below 100 nM.

As for `O=C(O)c1ccc(N2C(=O)/C(=C\c3c(Cl)cccc3C3CC3)c3c(C4CC4)cccc32)cc1O` [Example 12, (trans)-4-(3-(2-chloro-6-cyclopropyl-benzylidene)-4-cyclopropylindolin-2-on-1-yl)-2-hydroxybenzolic acid], the IC50 is below 100 nM.

As to `O=C(O)c1ccc(N2C(=O)/C(=C\c3c(Cl)cccc3C3CC3)c3c(F)cccc32)cc1` [Example 16A, (trans)-4-(3-(2-chloro-6-cyclopropyl-benzylidene)-4-fluoro-indolin-2-on-1-yl)-benzoic acid], the IC50 is below 100 nM.

In the case of `O=C(O)c1ccc(N2C(=O)/C(=C\c3c(Cl)cccc3C(F)(F)F)c3c(F)cccc32)cc1` [Example 19A, (trans)-4-(3-(2-chloro-6-trifluoromethyl-benzylidene)-4-fluoro-indolin-2-on-1-yl)-benzoic acid], the IC50 was below 100 nM.

`O=C(O)c1ccc(N2C(=O)/C(=C/c3c(Cl)cccc3C(F)(F)F)c3c(F)cccc32)cc1` [Example 19B, (cis)-4-(3-(2-chloro-6-trifluoromethyl-benzylidene)-4-fluoro-indolin-2-on-1-yl)-benzoic acid]: the IC50 is below 100 nM.

As to `O=C(O)c1ccc(N2C(=O)/C(=C\c3c(Cl)cccc3C3CC3)c3c(F)cccc32)cc1O` [Example 21A, (trans)-4-(3-(2-chloro-6-cyclopropyl-benzylidene)-4-fluoro-indolin-2-on-1-yl)-2-hydroxy-benzoic acid], the IC50 is below 100 nM.

As to `O=C(O)c1ccc(N2C(=O)/C(=C\c3c(Cl)cccc3Cl)c3c(F)cccc32)cc1O` [Example 22A, (trans)-4-(3-(2,6-dichloro-benzylidene)-4-fluoro-indolin-2-on-1-yl)-2-hydroxy-benzoic acid], the IC50 was below 100 nM.

`O=C(O)c1ccc(N2C(=O)/C(=C/c3c(Cl)cccc3Cl)c3c(F)cccc32)cc1O` [Example 22B, (cis)-4-(3-(2,6-dichloro-benzylidene)-4-fluoro-indolin-2-on-1-yl)-2-hydroxy-benzoic acid]: the IC50 is below 100 nM.

As for `O=C(O)c1ccc(N2C(=O)/C(=C\c3c(Cl)cccc3Cl)c3c(Cl)cccc32)cc1` [Example 23, (trans)-4-(3-(2,6-dichloro-benzylidene)-4-chloro-indolin-2-on-1-yl)-benzoic acid], the IC50 is below 100 nM.

As to `COc1cccc2c1/C(=C/c1c(Cl)cccc1C1CC1)C(=O)N2c1ccc(C(=O)O)cc1` [Example 30], the IC50 is below 100 nM.

In the case of `Cc1cccc2c1/C(=C/c1c(Cl)cccc1C1CCC1)C(=O)N2c1ccc(C(=O)O)cc1` [Example 34], the IC50 was below 100 nM.

For `Cc1cccc2c1/C(=C/c1c(Cl)cccc1C(C)C)C(=O)N2c1ccc(C(=O)O)c(O)c1` [Example 36, (trans)-4-(3-(2-chloro-6-isopropyl-benzylidene)-4-methylindolin-2-on-1-yl)-2-hydroxybenzolic acid], the IC50 is below 100 nM.

For the compound `CCc1cccc(Cl)c1/C=C1\C(=O)N(c2ccc(C(=O)O)c(O)c2)c2cccc(C)c21` [Example 37, (trans)-4-(3-(2-chloro-6-ethyl-benzylidene)-4-methylindolin-2-on-1-yl)-2-hydroxybenzolic acid], the IC50 is below 100 nM.
